Key:
Assay in all cases: relative viability (nuclei count vs DMSO), 5 days (fraction); higher = more cells survive
[1] = compound: NCC(=O)Nc1ccc(-n2nc(C(F)(F)F)cc2-c2ccc3c(ccc4ccccc43)c2)cc1 + Cc1cc(Nc2cc(N3CCN(C)CC3)nc(Sc3ccc(NC(=O)C4CC4)cc3)n2)n[nH]1 [Tozasertib] (partner 0.1 µM)
Outline: (§1)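 After 5 days of treatment, lung cancer cells in 1536-well plates were fixed and stained in a single step (final 0.05% Triton X-100, 1% formaldehyde, 1 ug/ml Hoechst) and their nuclei counted on 4× images. Treatment had been applied by pin tool the day after seeding as one drug alone or as a fixed anchor-drug dose with five library-drug doses (not always all listed) in √10 steps. Relative viability is the nuclei count of treated wells divided by that of vehicle wells, and values are medians of duplicate plates.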

[2] = compound: C1CSC2=C(C(=O)N1)SC3=C2C=C(C=C3)O [kb NB 142-70] + CC(=O)Nc1cccc(-n2c(=O)n(C3CC3)c(=O)c3c(Nc4ccc(I)cc4F)n(C)c(=O)c(C)c32)c1 [Trametinib] (partner 0.02 µM)
Outline: as §1

[3] = compound: C1CSC2=C(C(=O)N1)SC3=C2C=C(C=C3)O [kb NB 142-70] + Cc1nc(Nc2ncc(C(=O)Nc3c(C)cccc3Cl)s2)cc(N2CCN(CCO)CC2)n1 [Dasatinib] (partner 0.075 µM)
Outline: as §1

[4] = compound: NCC(=O)Nc1ccc(-n2nc(C(F)(F)F)cc2-c2ccc3c(ccc4ccccc43)c2)cc1 + CC(C)C[C@H](NC(=O)[C@H](Cc1ccccc1)NC(=O)c1cnccn1)B(O)O [Bortezomib] (partner 0.002 µM)
Outline: as §1

Cell Line	relative viability ([1]; first compound 0.02 µM)	relative viability ([1]; first compound 0.06325 µM)	relative viability ([1]; first compound 0.2 µM)	relative viability ([1]; first compound 0.6325 µM)	relative viability ([1]; first compound 2 µM)	relative viability ([2]; first compound 0.1 µM)	relative viability ([2]; first compound 1 µM)	relative viability ([2]; first compound 3.162 µM)	relative viability ([3]; first compound 0.1 µM)	relative viability ([3]; first compound 1 µM)	relative viability ([3]; first compound 3.162 µM)	relative viability ([4]; first compound 0.02 µM)	relative viability ([4]; first compound 0.06325 µM)	relative viability ([4]; first compound 0.2 µM)	relative viability ([4]; first compound 0.6325 µM)	relative viability ([4]; first compound 2 µM)
HCC-366	0.42	0.18	0.118	0.15	0.0801	0.321	0.274	0.232	0.634	0.498	0.378	1.17	1.03	1.04	1.02	1.01
HCC-827	0.38	0.437	0.389	0.427	0.446	0.539	0.53	0.395	0.265	0.295	0.445	1.02	1.12	1.04	1	1.15
HOP-62	0.364	0.409	0.37	0.409	0.365	0.401	0.427	0.545	0.72	0.65	0.763	0.828	0.859	0.728	0.339	1.02
IA-LM												0.775	0.721	0.802	0.814	0.813
LC-2-ad	0.399	0.546	0.486	0.469	0.42	0.898	0.937	0.875	0.609	0.607	0.463	1.1	1.03	0.997	0.912	1.12
LCLC-97TM1	0.228	0.26	0.234	0.206	0.206	0.197	0.183	0.174	0.787	0.95	0.882	0.814	0.75	0.35	0.538	0.539
LCLC-103H	0.416	0.477	0.457	0.471	0.448	0.672	0.654	0.803	0.459	0.521	0.505	1.03	1	1.13	1.07	1.1
LK-2	0.159	0.185	0.183	0.188	0.171	0.814	0.651	0.729	0.231	0.231	0.229					
LOU-NH91	0.621	0.716	0.649	0.663	0.797	0.754	0.785	0.657	0.486	0.508	0.556	0.485	0.523	0.485	0.511	0.484
NCI-H358	0.0971	0.102	0.12	0.0969	0.0967	0.117	0.103	0.105	0.15	0.109	0.127					
NCI-H522		0.589	0.537	0.505	0.516	0.799	0.617	0.566	1.03	0.856	0.704					
NCI-H1299												0.992	1.03	1.1	0.972	1.04
NCI-H1395	0.724	0.75	0.778	0.794	0.706	1.02	0.891	1.02	0.393	0.443	0.43					
NCI-H1563									0.464	0.467	0.424	0.77	0.962	0.69	0.925	0.928
NCI-H1623	0.407	0.429	0.464	0.396	0.488				0.552	0.558	0.428					
NCI-H1648	0.362	0.532	0.502	0.503	0.399	0.459	0.551	0.417								
NCI-H1703												0.278	0.237	0.307	0.215	0.344
NCI-H1792						0.478	0.567	0.579	0.757	0.816	0.769	1.02	0.974	0.932	0.946	0.966
NCI-H1793	0.343	0.346	0.368	0.393	0.324	0.399	0.542	0.463	0.388	0.424	0.443					
NCI-H1944	0.239	0.264	0.264	0.26	0.27	0.417	0.444	0.442	0.207	0.243	0.201					
NCI-H2170	0.743	0.726	0.779	0.799	0.771	0.878	0.958	0.888	0.498	0.475	0.4					
NCI-H2342	0.652	0.676	0.45	0.448	0.492	0.804	0.857	0.903	0.349	0.311	0.255					
SK-MES-1	0.939	1	0.914	0.866	0.856	0.547	0.631	0.714	0.422	0.49	0.337					
SW 900		0.509	0.594	0.533	0.511	0.73	1.05	0.682	0.517	0.478	0.208					
